{"source": "patent US9023831B2", "about": "“Methods and compositions of inhibiting complement and cellular activation with Dextran Sulfate” (Novelmed Therapeutics, Inc., priority 2007, dated 2015)", "key": {"[1]": {"target": "T1, human properdin (or factor P) (Homo sapiens, UniProt P27918)", "T1 construct": "purchased Advanced Research Technology, San Diego, Calif; A139", "T1 sequence (P27918 28-469)": "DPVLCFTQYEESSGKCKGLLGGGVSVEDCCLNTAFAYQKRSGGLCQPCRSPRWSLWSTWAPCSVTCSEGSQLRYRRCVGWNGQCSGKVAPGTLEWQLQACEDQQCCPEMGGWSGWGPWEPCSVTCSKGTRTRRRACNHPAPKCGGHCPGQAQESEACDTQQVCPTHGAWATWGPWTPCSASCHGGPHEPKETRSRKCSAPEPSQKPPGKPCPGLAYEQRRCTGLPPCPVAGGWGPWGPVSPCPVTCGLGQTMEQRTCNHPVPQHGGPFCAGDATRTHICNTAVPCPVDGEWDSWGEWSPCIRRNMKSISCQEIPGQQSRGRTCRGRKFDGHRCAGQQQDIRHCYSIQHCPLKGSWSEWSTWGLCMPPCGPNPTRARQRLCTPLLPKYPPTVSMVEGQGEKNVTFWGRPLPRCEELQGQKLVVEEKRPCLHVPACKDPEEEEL", "assay": "Properdin binding to substrate-bound Dextran Sulfate (ELISA)", "conditions": "substrate-bound Dextran Sulfate on microtiter plate; read-out: affinity of properdin binding to Dextran Sulfate (concentration of properdin at 50% maximal binding)", "method": "The binding of properdin appears to be specific and dose dependent. Leading to an affinity of 4 nM. […] Wells without Dextran Sulfate coating serve as background controls. […] Properdin solution was added to the appropriate wells."}, "[2]": {"system": "Thrombin Generation in Citrated Human plasma", "assay": "Thrombin generation in citrated human plasma (innovin, S2238)", "assay_type": "biochemical", "method": "FIG. 7 illustrates NM33014 Inhibits Thrombin Generation in Citrated Human plasma: Citrated Human Plasma was mixed with various concentrations of Dextran Sulfate in the presence of constant concentration of S2238 (Diapharma). […] Data was recorded using Soft Max-Pro on Spectramax 190 kinetic spectramax. Data presented is from a representative experiment that was repeated three times.\nCitrated human plasma (100 μl) was mixed with various concentrations of Dextran Sulfate in the presence of constant concentration of S2238 (100 μl of 2 μg/ml)."}, "[3]": {"system": "monocytes (CD11b expression)", "assay": "Monocyte activation (CD11b flow cytometry) after tubing loop", "assay_type": "cell-based, human", "text": "Same samples of blood following the tubing loop were also subjected to monocyte specific flow cytometry. […] Similar data was obtained with multiple donors. In the Figure are shown Rotated Control (blood sample in tubing loop), Unrotated controls (samples taken out before tubing loop). Unrotated represents the background controls.\nThe activation of neutrophils, monocyte and platelets were quantitated by measuring the levels of the cell-surface expression of CD11b and CD62P on neutrophils/monocytes and platelets, respectively. For CD11b labeling of neutrophils, 200 μl of whole blood collected from the circuits were immediately incubated with 20 μl of phycoerythrin (PE)-anti-CD11b antibody (Becton Dickinson, San Jose, Calif.) for 20 minutes at room temperature in a microcentrifuge tube. Then 2 ml of FACS Lysing Solution (Becton Dickinson) was added for 20 minutes at room temperature to lyse red blood cells and to fix leukocytes. The microcentrifuge tubes were centrifuged at 300 g for 5 minutes for leukocytes and 1200 g for platelets. The supernatant was aspirated and the cells resuspended in PBS for washing. The tubes were spun again, the supernatant aspirated, and the cells finally resuspended in 0.5 ml of 1% paraformaldehyde overnight prior to analysis using an BD-LSR flow cytometer (BD Biosciences). For double labeling to concomitantly identify the neutrophil population, 10 μl of fluorescein isothiocyanate (FITC)-anti-CD15 antibody (clone MMA, Becton Dickinson) were added for incubation together with PE-anti-CD11b antibody to stain neutrophils and anti-CD14 (FITC) along with PE-CD11b was used for monocytes.\nNeutrophils bear both C3a and C5a receptors. Thus, prevention of C3a/C5a production should have direct effect on CD11b expression. Monocytes have been known to bear the C3a receptors. C3a produced because of complement activation is known to activate monocytes."}, "[4]": {"system": "platelets (CD62P staining)", "assay": "Platelet activation (CD62P flow cytometry) after tubing loop", "assay_type": "cell-based, human", "method": "It was expected that platelet activation would also be inhibited. […] The inhibition of platelet activation was measured using flow cytometry following CD62P staining of activated platelets.\nIt was expected that platelet activation will also be inhibited. […] The inhibition of platelet activation was measured using flow cytometry following CD62P staining of activated platelets.\nWhile platelets bear C3a receptors, it is not clear how platelets were being activated. In an effort to downregulate platelet activation, we performed an experiment in which Dextran Sulfate was utilized in combination with aspirin. […] These surprising results present Dextran Sulfate as a lead complement inhibitory drug that down regulates both complement and cellular activation in heparinized whole human blood. Shown in FIGS. 10d and 10e are results from this study.\nFor CD62P labeling of platelets, 100 μl of diluted blood collected from the circuits were immediately incubated with 20 μl of PE-anti-CD62P antibody (Becton Dickinson) for 20 minutes at room temperature in a polypropylene tube, Then the mixture was treated with FACS Lysing Solution as described above. The microcentrifuge tubes were centrifuged at 12000. g for 5 minutes. The platelets were washed in PBS/BSA 01%, fixed in 1% paraformaldehyde and then analyzed as described above. For double labeling to concomitantly identify the platelet population, 5 μl of FITC-anti-CD61 antibody were added for incubation together with PE-anti-CD62P antibody.\nFor flow cytometry measurement, the PMN (containing mainly neutrophils) and platelet populations were identified by live gating based on forward- versus side-scatter parameters and specific staining with FITC-anti-CD15 antibody and FITC-anti-CD61 antibody, respectively. The background staining was gated using isotype-matched labeled antibodies. The intensity of expression of CD11b and CD62P was represented by mean fluorescence intensity (MFI)."}, "properdin": {"target": "properdin (Homo sapiens, UniProt P27918)", "sequence (P27918 28-469)": "as above", "conditions": "Dextran Sulfate added in solution along with properdin", "protocol": "Methods: Polystyrene microtiter plates were coated with Dextran Sulfate overnight. Wells without Dextran Sulfate coating served as background controls. After removal of the Dextran Sulfate solution, the plates were washed and blocked with 1% BSA in PBS. Properdin solution with and without Dextran Sulfate was added to the appropriate wells. After this incubation, properdin solution was aspirated from the plate and the plate was washed. The wells were then incubated with anti-properdin monoclonal antibody at a 1:2000 dilution in blocking solution to allow detection of Dextran Sulfate-bound properdin. The wells were rinsed and further incubated with peroxidase-conjugated goat anti-mouse IgG followed by another wash step. Dextran Sulfate-bound properdin was detected by the addition of TMB substrate. The reaction of TMB was quenched by the addition of O-phosphoric acid and the plate read at 450 nm."}, "Properdin Binding to C3b": {"target": "Properdin Binding to C3b (Homo sapiens, UniProt P27918)", "sequence (P27918 28-469)": "as above", "assay": "Inhibition of properdin binding to C3b (ELISA)", "conditions": "C3b coated plates", "protocol": "Methods: Polystyrene microtiter plates were coated with C3b in phosphate buffered saline (PBS) overnight. After aspirating the C3b solution, wells were blocked bovine serum albumin Wells without C3b coating served as background controls. […] Wells were washed PBS and C3b-bound properdin was detected by the addition of a mouse anti-human properdin antibody (Quidel, P#2 monoclonal). After washing the plate with PBS, HRP-conjugated goat anti-mouse antibody (Sigma Chemicals A2304) was added and allowed to incubate for 1 h. The plate was again rinsed thoroughly with PBS, and TMB substrate was added to each well. The data was plotted using Microcal Origin Program.\nIn a typical assay, polystyrene microtiter plates were coated with C3b (50 μg/50 μl/well, Advanced Research Technologies, San Diego, Calif.) in phosphate buffered saline (PBS) overnight at 4° C. After aspirating the C3b solution, wells were blocked with PBS containing 1% bovine serum albumin (BSA) (Sigma Chemical Company, St. Louis, Mo., Cat. No. A7888) for 2 hours at room temperature. Wells without C3b coating served as background controls. […] C3b-bound properdin was detected by the addition of mouse monoclonal anti-human properdin antibody (detection antibody) (Quidel, San Diego, Calif., anti-human properdin monoclonal antibody P#2, Cat. No. A235) at 1:2000 dilution in blocking solution, which was allowed to incubate for 1 hour at room temperature. […] After incubation for 10 minutes at 25° C., the reaction of TMB was quenched by the addition of 100 μl of phosphoric acid, and the plate was read at 450 nm in a microplate reader (e.g., SPECTRA MAX 190, Molecular Devices, Sunnyvale, Calif.). […]\nThe ability of a Dextran Sulfate to inhibit C3b-P binding was evaluated by adding varying concentrations of Dextran Sulfate to a constant concentration of properdin (2 nM). The amount of properdin bound to C3b was detected with the antibody detection system described above."}, "[5]": {"system": "Complement Activity in Whole Blood Following Tubing Loop Model", "assay": "rRBC hemolysis with plasma after tubing loop model", "conditions": "for inhibition of rRBC hemolysis: plasma 10% in AP buffer", "protocol": "Lightscattering was measured as a function of time. […] X-axis is time of hemolysis in seconds and Y-axis is scattering at 700 nm Methods: Whole heparinized blood was diluted with plasmalyte to 50% in the presence or absence of NM3014. Samples were centrifuged, and plasma was subjected to hemolysis assay. Plasma final concentration as 10% in GVB (GVB containing 10 mM MgCl2, 5 mM EGTA). rRBC was added and hemolysis of all samples were recorded.\nPlasma aliquots for the alternative pathway hemolytic assays: Plasma samples were subjected to alternative pathway dependent hemolytic assay using AP buffer (GVB containing 10 mM magnesium chloride, 5 mM EGTA). Plasma concentrations were adjusted to 10% final in AP buffer. rRBC were incubated at 37° and the extent of hemolysis was obtained using kinetic run (SoftMax Pro, Molecular Devices, CA)."}, "[6]": {"system": "sC5b-9 in Normal Heparinized Whole Human Blood", "assay": "sC5b-9 ELISA after tubing loop model of cardiopulmonary bypass", "conditions": "for inhibition of sC5b-9 formation / complement activity in whole blood / inhibition of sC5b-9 formation: 2 hour tubing loop rotation", "protocol": "An aliquot of the plasma following the 2 hour tubing loop rotation in bypass was evaluated for sC5b-9 using ELISA kit from Quidel Corporation.\nPreparation of Tubing Loops: Tubing loops (PVC, cat # . . . VWR Scientific) were prepared by cutting a piece of polyvinyl tubing and connecting the ends of the tubing with a piece of silicone plug. Blood was drawn using 16 gauge needled from fasting healthy donors. The blood volume of 45 was drawn into a 50 ml polypropylene tube containing a final concentration of 5 units of heparin per ml of blood. The blood was diluted with 35 ml plasmalyte. The diluted blood (2 ml) was filled in each tubing loop. Duplicate tubing loops were prepared for each treatment. Blood samples were prepared as follows; no treatment, treated with various concentrations of Dextran Sulfate.\n(2) Tubing Loop Operation and Sampling: The concentration of Dextran Sulfate was chosen based upon in vitro assay and the concentration of plasma. Concentrations of Dextran Sulfate in range of 800 μg/ml, 400 μg/ml, 200 μg/ml, 100 μg/ml, and 40 μg/ml. Prior to the addition of the untreated and treated blood to the extracorporeal circuit, a blood sample was taken from the stock of diluted blood and is designated baseline control. At that time, various concentrations of Dextran Sulfate in blood will be filled into the tubing loop. Following a 2 hours rotation at 37°, tubing loop samples were transferred to 2 ml polypropylene tubes and plasma samples were prepared by immediate centrifugation at 2,000 g. […] A number of controls were put into place. From the donor we obtained serum, heparinized whole blood plasma, unrotated controls, rotated controls, and Dextran Sulfate treated samples.\nPlasma aliquots for measuring sC5b-9 in ELISA. Aliquots were appropriately diluted for the measurements of sC5b-9 complex in plasma."}, "[7]": {"system": "immune cells infiltrating the synovial fluid", "assay": "Cellular infiltration into arthritic knee joints of AIA rabbits", "conditions": "48-h after last treatment, vs vehicle-treated AIA rabbits", "protocol": "Methods. The numbers of immune cells infiltrating the synovial fluid of the right and left joints was determined by cell counting using a hemocytometer.\nSynovial samples were also collected from the right and left knees of the AIA rabbits in this experiment and assessed for immunocyte infiltration 48-h after the last Dextran Sulfate or vehicle treatment. […] Data are presented as mean number of cells±SEM for each rabbit (N of 5 per treatment group, Stats: repeated measure ANOVA with Bonferoni Post-hoc test, *p<0.05)."}, "[8]": {"system": "Complement Activity in Antigen-Induced Arthritic Rabbit", "assay": "Complement activity in antigen-induced arthritic rabbits (C3c assay)", "conditions": "60 mg/Kg i.v.; for inhibition of complement activation in vivo: ten minutes after treatment, vs vehicle-treated AIA rabbits", "protocol": "METHODS: After the intra-articular ovalbumin injection to induce arthritis, disease pathology developed for seven days prior to the collection of a blood sample to determine complement activation levels and the administration of Dextran Sulfate treatment. Blood samples were drawn prior to all treatments with Dextran Sulfate to establish baseline values and pre-treatment complement activation levels. Dextran Sulfate (60 mg/Kg) was then injected via the marginal vein every day over a 3 day period. Ten minutes after treatment with Dextran Sulfate a second 1-ml blood sample from the ear to assess complement activation shortly after the treatment. Complement activation was assessed using the C3c assay described in methods."}}, "note": "Values joined by “and” are separate entries in the source; they are usually repeats but may differ in a detail not shown here. Equal entries are not always repeated. “Also recorded” adds a separate entry of the source. Where two headings read alike, the source gives them in different places.", "data": [{"substance": "Dextran Sulfate [NM3014]", "values": [{"measurement": "Kd", "setting": "[1]", "result": "4 nM and ~4 nM"}, {"measurement": "effect on coagulation (thrombin generation)", "setting": "[2]; 10 μg/ml", "result": "partial effect"}, {"measurement": "effect on coagulation (thrombin generation)", "setting": "[2]; 30 μg/ml", "result": "inhibit coagulation"}, {"measurement": "effect on coagulation (thrombin generation)", "setting": "[2]; 60 μg/ml", "result": "inhibit coagulation"}, {"measurement": "inhibition of monocyte activation", "setting": "[3]; 40 μg/ml", "result": "no effect"}, {"measurement": "inhibition of monocyte activation", "setting": "[3]; 100 μg/ml", "result": "inhibited; also recorded: prevents monocyte activation"}, {"measurement": "inhibition of monocyte activation", "setting": "[3]; 100 μg/ml, listed as Dextran Sulfate", "result": "down regulates CD11b expression"}, {"measurement": "platelet activation", "setting": "[4]; 40 μg/ml, above control levels", "result": "activates platelet"}, {"measurement": "platelet activation", "setting": "[4]; 100 μg/ml, above control levels", "result": "activates platelet"}, {"measurement": "platelet activation", "setting": "[4]; treated samples compared to untreated controls, concentration not stated", "result": "increased CD62P staining"}, {"measurement": "platelet activation", "setting": "[4]; treated samples compared to untreated controls, concentration not stated, listed as Dextran Sulfate", "result": "activates platelets"}, {"measurement": "inhibition of properdin binding to substrate-bound Dextran Sulfate", "setting": "properdin", "result": "inhibited"}, {"measurement": "inhibition of properdin binding to substrate-bound Dextran Sulfate", "setting": "properdin; listed as Dextran Sulfate", "result": "dose-dependent inhibition"}, {"measurement": "inhibition of properdin binding to C3b", "setting": "Properdin Binding to C3b", "result": "dose-dependent and complete inhibition"}, {"measurement": "inhibition of properdin binding to C3b", "setting": "Properdin Binding to C3b; listed as Dextran Sulfate", "result": "dose-dependent inhibition"}, {"measurement": "IC50 of inhibition of properdin binding to C3b", "setting": "Properdin Binding to C3b; human serum containing nearly 2-5 nM properdin", "result": "~50", "unit": "mg/L"}, {"measurement": "inhibition of rRBC hemolysis", "setting": "[5]; 100 μg/ml", "result": "complete inhibition of hemolysis"}, {"measurement": "inhibition of rRBC hemolysis", "setting": "[5]; 200 μg/ml", "result": "complete inhibition of hemolysis"}, {"measurement": "inhibition of rRBC hemolysis", "setting": "[5]; 400 μg/ml", "result": "complete inhibition of hemolysis"}, {"measurement": "inhibition of rRBC hemolysis", "setting": "[5]; 800 μg/ml", "result": "complete inhibition of hemolysis"}, {"measurement": "inhibition of complement activity in human plasma (hemolysis)", "setting": "[5]; 100, 400, 800 μg/ml lines of FIG. 10a", "result": "inhibits complement activity"}, {"measurement": "inhibition of rRBC hemolysis", "setting": "[5]; around 40 μg/ml", "result": "No inhibition"}, {"measurement": "inhibition of sC5b-9 formation / complement activity in whole blood", "setting": "[6]; 40 μg/ml", "result": "no inhibition; also recorded: does not inhibit complement activity"}, {"measurement": "inhibition of sC5b-9 formation / complement activity in whole blood", "setting": "[6]; 100 μg/ml", "result": "complete inhibition; also recorded: inhibits complement activity; also recorded: inhibition of complement activity"}, {"measurement": "inhibition of sC5b-9 formation", "setting": "[6]; 400 μg/ml", "result": "complete inhibition"}, {"measurement": "inhibition of sC5b-9 formation", "setting": "[6]; 800 μg/ml", "result": "complete inhibition"}, {"measurement": "inhibition of sC5b-9 production", "setting": "[6]; all doses up to 100 μg/ml", "result": "completely inhibited"}, {"measurement": "immunocyte infiltration into arthritic knee joints", "setting": "[7]", "result": "reduced"}, {"measurement": "immunocyte infiltration into arthritic knee joints", "setting": "[7]; listed as Dextran Sulfate", "result": "significant decrease"}, {"measurement": "inhibition of AP activity in vivo", "setting": "[8]; 24 hour later", "result": "no inhibition"}, {"measurement": "inhibition of complement activation in vivo", "setting": "[8]", "result": "complete inhibition"}, {"measurement": "inhibition of complement activation in vivo", "setting": "[8]; listed as Dextran Sulfate", "result": "completely blocked"}]}]}
